From ChEMBL document CHEMBL5465560, “Selectivity Literature for EUbOPEN Chemogenomic Library” (2024)

Key:
[1] = target: Phosphatidylinositol 4-phosphate 3-kinase C2 domain-containing subunit beta (Homo sapiens) (UniProt O00750); test: Selectivity interaction (KinomeScan (DiscoverX)) EUB0000595a PIK3C2B; conditions: at 10 µM
[2] = target: T1, Dual specificity mitogen-activated protein kinase kinase 7 (Homo sapiens) (UniProt O14733); test: Selectivity interaction (KinomeScan (DiscoverX)) EUB0000595a MAP2K7; conditions: at 10 µM
T1 sequence (whole entry): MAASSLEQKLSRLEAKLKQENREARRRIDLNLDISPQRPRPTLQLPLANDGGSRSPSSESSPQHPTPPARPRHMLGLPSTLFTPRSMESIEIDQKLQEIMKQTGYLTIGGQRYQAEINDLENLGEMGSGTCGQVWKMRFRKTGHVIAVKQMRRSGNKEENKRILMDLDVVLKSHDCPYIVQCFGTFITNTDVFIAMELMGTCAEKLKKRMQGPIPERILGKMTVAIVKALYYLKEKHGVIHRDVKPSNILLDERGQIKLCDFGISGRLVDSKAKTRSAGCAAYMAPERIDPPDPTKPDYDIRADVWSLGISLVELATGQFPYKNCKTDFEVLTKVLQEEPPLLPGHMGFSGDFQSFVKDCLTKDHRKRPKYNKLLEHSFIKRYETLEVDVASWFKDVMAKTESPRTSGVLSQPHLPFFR

[3] = target: T2, Cyclin-dependent kinase 11A (Homo sapiens) (UniProt Q9UQ88); test: Selectivity interaction (KinomeScan (DiscoverX)) EUB0000595a CDK11A; conditions: at 10 µM
T2 sequence (whole entry): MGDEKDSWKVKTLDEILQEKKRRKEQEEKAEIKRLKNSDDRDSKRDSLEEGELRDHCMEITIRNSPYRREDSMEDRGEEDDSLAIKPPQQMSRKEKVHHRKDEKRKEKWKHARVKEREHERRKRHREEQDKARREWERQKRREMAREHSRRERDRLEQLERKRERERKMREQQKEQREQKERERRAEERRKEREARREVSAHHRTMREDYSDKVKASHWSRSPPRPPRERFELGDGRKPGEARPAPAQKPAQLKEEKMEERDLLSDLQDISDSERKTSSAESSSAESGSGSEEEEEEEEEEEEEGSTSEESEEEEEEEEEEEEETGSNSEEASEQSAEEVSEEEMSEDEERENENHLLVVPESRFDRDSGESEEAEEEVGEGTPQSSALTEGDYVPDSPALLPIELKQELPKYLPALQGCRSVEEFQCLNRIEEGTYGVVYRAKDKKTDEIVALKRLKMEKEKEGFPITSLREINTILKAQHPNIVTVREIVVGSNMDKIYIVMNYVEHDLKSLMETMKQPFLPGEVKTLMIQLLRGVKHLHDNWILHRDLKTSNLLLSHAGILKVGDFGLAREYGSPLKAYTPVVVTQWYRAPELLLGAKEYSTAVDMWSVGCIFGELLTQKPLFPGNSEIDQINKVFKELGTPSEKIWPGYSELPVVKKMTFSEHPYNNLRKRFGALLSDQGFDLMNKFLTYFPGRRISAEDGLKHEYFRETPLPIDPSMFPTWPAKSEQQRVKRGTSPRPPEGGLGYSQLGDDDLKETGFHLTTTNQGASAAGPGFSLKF

[4] = target: Non-receptor tyrosine-protein kinase TYK2 (Homo sapiens, UniProt P29597); test: Selectivity interaction (KinomeScan (DiscoverX)) EUB0000695a TYK2; conditions: at 100 nM
Ephrin type-A receptor 4 = Ephrin type-A receptor 4 (Homo sapiens, UniProt P54764); test: Selectivity interaction (Kinase panel (Z-LYTE Assay)) EUB0001632a EPHA4; conditions: at 10 µM
Insulin receptor = Insulin receptor (Homo sapiens, UniProt P06213); test: Selectivity interaction (Kinase panel (Z-LYTE Assay)) EUB0001632a INSR; conditions: at 10 µM
[5] = target: Vascular endothelial growth factor receptor 1 (Homo sapiens) (UniProt P17948); conditions: at 10 µM
D(2) dopamine receptor = D(2) dopamine receptor (Homo sapiens, UniProt P14416); test: Selectivity interaction (Panel of kinases, GPCRs, ion channels and transporters (enzymatic assay)) EUB0000223bCl DRD2
[6] = target: Dual specificity protein kinase CLK3 (Homo sapiens, UniProt P49761); test: Selectivity interaction (SelectScreen profiling (Invitrogen)) EUB0000607a CLK3; conditions: at 2 µM
[7] = target: Serine/threonine-protein kinase N1 (Homo sapiens, UniProt Q16512); test: Selectivity interaction (SelectScreen profiling (Invitrogen)) EUB0000607a PKN1; conditions: at 2 µM
[8] = target: T3, Serine/threonine-protein kinase TNNI3K (Homo sapiens) (UniProt Q59H18); test: Selectivity interaction (KinomeScan (DiscoverX)) EUB0000618a TNNI3K; conditions: at 10 µM
T3 sequence (whole entry): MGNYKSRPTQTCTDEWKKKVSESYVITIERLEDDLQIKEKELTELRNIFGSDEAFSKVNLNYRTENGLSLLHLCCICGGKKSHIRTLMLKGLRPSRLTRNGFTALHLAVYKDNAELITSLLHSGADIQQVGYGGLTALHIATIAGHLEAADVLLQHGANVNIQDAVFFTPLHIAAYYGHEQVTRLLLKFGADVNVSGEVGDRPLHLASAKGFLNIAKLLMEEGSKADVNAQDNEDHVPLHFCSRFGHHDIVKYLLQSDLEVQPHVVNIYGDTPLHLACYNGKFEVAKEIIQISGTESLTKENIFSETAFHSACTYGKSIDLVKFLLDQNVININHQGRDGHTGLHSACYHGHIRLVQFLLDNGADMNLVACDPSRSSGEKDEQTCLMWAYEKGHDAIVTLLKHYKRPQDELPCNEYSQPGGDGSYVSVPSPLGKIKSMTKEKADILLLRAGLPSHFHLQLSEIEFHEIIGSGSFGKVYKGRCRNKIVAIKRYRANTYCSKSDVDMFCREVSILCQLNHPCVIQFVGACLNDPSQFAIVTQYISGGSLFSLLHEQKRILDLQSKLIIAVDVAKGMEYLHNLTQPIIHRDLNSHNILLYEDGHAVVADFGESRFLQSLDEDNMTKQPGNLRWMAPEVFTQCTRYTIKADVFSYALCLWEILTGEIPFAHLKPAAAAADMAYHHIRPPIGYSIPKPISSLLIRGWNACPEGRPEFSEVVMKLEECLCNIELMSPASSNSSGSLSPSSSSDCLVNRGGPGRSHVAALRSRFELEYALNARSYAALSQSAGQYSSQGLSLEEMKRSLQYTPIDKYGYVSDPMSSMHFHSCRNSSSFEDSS

[9] = target: Cannabinoid receptor 2 (Homo sapiens) (UniProt P34972); test: Selectivity interaction (Panel of kinases, GPCRs, ion channels and transporters (enzymatic assay)) EUB0000266bCl CNR2
[10] = target: cAMP-dependent protein kinase catalytic subunit alpha (Homo sapiens, UniProt P17612); test: Selectivity interaction (Ambit KINOMEscan and KiNATiv profiling in Jurkat cells) EUB0000090b PRKACA; assay type: cell-based; conditions: at 1 µM

Phosphatidylinositol 4-phosphate 3-kinase C2 domain-containing subunit beta (Homo sapiens), sequence (O00750 whole entry, the tested form may be a part): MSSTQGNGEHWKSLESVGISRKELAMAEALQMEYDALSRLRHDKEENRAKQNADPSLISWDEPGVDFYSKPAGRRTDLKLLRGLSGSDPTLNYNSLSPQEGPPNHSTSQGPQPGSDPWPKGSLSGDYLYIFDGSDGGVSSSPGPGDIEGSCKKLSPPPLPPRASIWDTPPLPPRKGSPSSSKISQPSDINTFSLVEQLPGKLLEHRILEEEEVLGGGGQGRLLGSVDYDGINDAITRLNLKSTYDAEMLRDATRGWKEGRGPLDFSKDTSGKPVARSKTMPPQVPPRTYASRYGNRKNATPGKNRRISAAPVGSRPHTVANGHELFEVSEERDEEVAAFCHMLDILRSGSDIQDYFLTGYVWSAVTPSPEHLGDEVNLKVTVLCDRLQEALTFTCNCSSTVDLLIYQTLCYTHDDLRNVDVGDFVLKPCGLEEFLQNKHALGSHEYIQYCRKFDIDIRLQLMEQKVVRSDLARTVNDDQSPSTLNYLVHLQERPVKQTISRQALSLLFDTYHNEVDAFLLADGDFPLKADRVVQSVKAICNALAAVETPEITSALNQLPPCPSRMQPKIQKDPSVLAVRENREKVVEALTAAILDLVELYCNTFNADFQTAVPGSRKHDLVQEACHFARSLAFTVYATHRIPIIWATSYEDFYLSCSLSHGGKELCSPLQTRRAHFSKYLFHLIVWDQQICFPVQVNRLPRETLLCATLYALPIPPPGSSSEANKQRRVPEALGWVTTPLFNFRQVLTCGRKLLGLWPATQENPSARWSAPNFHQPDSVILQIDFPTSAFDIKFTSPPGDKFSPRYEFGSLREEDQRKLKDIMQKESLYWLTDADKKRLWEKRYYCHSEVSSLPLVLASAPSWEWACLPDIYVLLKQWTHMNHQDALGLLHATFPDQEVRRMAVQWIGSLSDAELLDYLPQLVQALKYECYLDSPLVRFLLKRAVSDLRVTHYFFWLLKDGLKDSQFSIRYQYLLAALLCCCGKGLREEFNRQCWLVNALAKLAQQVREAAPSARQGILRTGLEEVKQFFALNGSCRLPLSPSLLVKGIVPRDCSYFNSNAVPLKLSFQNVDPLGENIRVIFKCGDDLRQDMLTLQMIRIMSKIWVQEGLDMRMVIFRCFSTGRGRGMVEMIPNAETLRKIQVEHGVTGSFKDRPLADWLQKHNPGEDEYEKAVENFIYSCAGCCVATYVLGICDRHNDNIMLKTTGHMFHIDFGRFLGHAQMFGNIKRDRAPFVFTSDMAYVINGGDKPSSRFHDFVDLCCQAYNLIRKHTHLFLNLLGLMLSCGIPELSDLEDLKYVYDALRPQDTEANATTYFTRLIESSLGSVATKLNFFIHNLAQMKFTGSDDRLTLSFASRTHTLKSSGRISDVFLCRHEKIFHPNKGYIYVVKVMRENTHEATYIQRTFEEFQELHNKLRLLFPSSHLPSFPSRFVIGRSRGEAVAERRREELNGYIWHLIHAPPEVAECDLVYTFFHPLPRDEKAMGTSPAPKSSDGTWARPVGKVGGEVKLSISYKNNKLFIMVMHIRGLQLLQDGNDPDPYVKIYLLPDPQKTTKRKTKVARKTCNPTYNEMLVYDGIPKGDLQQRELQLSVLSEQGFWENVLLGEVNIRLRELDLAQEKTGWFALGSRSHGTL
Serine/threonine-protein kinase N1, sequence (Q16512 2-942 limits assumed): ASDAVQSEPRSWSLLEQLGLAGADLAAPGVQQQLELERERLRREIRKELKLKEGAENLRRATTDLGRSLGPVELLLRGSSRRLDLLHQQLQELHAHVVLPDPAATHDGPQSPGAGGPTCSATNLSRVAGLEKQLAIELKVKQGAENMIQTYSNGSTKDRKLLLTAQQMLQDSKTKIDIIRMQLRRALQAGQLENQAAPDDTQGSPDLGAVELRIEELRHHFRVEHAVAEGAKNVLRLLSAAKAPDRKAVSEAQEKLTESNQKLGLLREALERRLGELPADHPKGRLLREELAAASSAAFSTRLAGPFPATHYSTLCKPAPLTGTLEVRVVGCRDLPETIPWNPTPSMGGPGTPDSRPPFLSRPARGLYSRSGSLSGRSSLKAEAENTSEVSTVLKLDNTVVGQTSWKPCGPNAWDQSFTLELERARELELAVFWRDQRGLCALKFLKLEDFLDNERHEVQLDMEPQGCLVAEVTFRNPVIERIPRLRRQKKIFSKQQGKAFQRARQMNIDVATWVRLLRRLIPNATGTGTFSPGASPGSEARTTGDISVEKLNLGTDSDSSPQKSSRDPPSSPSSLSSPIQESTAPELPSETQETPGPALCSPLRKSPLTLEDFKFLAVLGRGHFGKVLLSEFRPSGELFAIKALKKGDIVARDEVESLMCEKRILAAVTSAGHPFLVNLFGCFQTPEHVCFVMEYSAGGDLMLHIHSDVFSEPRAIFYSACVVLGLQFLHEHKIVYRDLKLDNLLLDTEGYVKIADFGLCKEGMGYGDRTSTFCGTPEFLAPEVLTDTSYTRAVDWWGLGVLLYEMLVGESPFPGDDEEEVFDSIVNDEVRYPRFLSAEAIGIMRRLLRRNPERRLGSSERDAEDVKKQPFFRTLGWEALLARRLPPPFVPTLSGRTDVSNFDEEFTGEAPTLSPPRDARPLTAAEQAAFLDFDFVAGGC
Ephrin type-A receptor 4, sequence (P54764 whole entry): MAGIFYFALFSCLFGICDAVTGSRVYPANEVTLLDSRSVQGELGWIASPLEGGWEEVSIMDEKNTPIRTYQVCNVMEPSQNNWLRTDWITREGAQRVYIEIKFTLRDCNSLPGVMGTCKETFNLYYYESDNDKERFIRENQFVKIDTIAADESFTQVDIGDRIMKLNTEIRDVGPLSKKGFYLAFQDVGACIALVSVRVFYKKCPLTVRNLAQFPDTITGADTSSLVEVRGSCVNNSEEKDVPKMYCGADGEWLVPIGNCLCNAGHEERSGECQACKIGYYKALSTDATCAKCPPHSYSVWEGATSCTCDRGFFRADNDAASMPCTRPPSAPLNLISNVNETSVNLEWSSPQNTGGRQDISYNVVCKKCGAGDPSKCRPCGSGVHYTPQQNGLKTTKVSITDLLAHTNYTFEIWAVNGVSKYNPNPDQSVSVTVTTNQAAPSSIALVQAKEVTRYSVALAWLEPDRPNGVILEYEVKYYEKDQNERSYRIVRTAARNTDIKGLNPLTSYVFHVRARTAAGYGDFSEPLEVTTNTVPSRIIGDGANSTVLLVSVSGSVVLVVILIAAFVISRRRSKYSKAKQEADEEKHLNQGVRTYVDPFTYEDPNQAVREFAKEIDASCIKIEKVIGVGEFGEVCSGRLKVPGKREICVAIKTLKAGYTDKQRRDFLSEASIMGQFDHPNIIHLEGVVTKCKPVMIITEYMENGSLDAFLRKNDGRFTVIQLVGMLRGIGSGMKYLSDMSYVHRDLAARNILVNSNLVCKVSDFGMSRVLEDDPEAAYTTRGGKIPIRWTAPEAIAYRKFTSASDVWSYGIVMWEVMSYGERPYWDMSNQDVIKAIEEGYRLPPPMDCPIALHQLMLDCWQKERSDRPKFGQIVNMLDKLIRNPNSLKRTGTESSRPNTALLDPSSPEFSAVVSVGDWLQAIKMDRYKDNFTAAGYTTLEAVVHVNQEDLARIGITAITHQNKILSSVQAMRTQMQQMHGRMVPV
D(2) dopamine receptor, sequence (P14416 whole entry): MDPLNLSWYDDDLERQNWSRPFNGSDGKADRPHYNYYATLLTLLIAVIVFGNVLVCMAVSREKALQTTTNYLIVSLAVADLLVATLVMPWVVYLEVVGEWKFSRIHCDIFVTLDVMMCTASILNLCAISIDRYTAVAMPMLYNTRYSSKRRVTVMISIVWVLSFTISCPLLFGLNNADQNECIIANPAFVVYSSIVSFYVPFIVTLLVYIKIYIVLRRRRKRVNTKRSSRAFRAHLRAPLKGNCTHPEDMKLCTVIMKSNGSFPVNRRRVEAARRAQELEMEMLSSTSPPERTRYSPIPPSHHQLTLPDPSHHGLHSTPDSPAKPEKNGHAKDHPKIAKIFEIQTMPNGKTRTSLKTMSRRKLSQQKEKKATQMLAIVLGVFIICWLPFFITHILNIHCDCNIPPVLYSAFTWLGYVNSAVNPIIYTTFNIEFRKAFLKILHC
Dual specificity protein kinase CLK3, sequence (P49761 whole entry, looked up): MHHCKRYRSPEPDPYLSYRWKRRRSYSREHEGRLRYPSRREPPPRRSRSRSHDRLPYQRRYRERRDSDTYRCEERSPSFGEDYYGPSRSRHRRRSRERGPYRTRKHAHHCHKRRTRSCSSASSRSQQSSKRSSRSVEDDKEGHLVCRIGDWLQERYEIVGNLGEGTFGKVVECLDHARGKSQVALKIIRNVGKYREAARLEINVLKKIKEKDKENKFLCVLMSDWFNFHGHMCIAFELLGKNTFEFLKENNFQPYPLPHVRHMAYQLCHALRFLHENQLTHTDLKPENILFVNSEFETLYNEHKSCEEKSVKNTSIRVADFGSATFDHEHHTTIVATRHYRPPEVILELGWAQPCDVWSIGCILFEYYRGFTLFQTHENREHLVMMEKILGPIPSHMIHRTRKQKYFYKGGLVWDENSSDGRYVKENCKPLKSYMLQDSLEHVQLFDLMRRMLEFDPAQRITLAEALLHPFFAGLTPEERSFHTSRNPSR
Cannabinoid receptor 2 (Homo sapiens), sequence (P34972 whole entry): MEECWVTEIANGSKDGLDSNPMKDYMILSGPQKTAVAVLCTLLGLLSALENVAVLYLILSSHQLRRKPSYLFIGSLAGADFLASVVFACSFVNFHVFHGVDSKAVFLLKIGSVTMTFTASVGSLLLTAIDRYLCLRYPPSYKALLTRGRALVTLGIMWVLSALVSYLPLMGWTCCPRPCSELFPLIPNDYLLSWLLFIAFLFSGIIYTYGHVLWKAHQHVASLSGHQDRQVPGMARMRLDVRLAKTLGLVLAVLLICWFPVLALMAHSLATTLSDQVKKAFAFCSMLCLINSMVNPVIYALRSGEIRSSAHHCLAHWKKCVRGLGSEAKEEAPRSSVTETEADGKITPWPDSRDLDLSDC

`COCC(=O)NC/C=C/c1ccc2ncnc(Nc3ccc(Oc4ccc(C)nc4)c(C)c3)c2c1` [CP-724714] was tested. Which % of control [1] did it give?
The % of control was 88%.

And the % of control [2]?
The % of control was 100%.

And the % of control [3]?
Its % of control is 100%.

With `Cc1cc(F)c(C(=O)Nc2cccc(-c3nncn3C(C)C)n2)cc1-n1cnc(C2CC2)c1` as the molecule, how does the % of control [4] read?
The % of control was 73%.

Which results are given for `Cn1cc(-n2cnc3c(NCc4nc5cc(Cl)c(Cl)cc5[nH]4)nc(N4CCOCC4)nc32)cn1`?
% of control (Ephrin type-A receptor 4): -5.33%; % of control (Insulin receptor): -1.61%

`Cc1cc([C@@H](C)Nc2ccccc2C(=O)O)c2nc(N3CCOCC3)cc(=O)n2c1` [AZD-6482] was tested. Which % of control [5] did it give?
The % of control was 83%.

With `COc1cc(C(=O)N2CC[C@@H](O)[C@@H](N)C2)cc2nc(-c3cc4ccccc4n3CC3CC3)n(C)c12` as the molecule, how does the pXC50 (D(2) dopamine receptor) read?
The pXC50 was less than 4 M.

With `CNC(=O)Nc1ccc(-c2nc(N3CC4CCC(C3)O4)c3cnn(C4CCC5(CC4)OCCO5)c3n2)cc1` as the molecule, how does the % of inhibition [6] read?
The % of inhibition was 2%.

And the % of inhibition [7]?
Its % of inhibition is 14%.

With `O[C@H]1CC[C@H](Nc2ncc3nc(Nc4c(F)cc(F)cc4F)n([C@H]4CCOC4)c3n2)CC1` as the molecule, how does the % of control [8] read?
The % of control was 100%.

Which pXC50 [9] does the source give for `CCn1c(-c2nc3cc(C(=O)N4CCCC(N)C4)ccc3n2C)cc2ccccc21` (stereo not drawn) here?
The pXC50 was less than 4 M.

Which % of control [10] does the source give for `CN(C)C/C=C/C(=O)Nc1ccc(C(=O)N2CCCC(Nc3ncc(Cl)c(-c4c[nH]c5ccccc45)n3)C2)cc1` (stereo not drawn) here?
Its % of control is 100%.
